SMILES strings stand for the structures. In brackets after ≈: the same amount, converted by molar mass.

These results are taken from patent publication EP0528030B1, “ANTITUMOR BE-13793C DERIVATIVE” (BANYU PHARMACEUTICAL CO., LTD., priority 1990, dated 1991).

What all share (format): cell-based
In assay [1] the test system is human gastric cancer cell MKN45. The assay can be described thus: Cancer cell proliferation inhibition (sulforhodamine B staining), MKN45. The settings on record: MKN-45, 72 hours culture with test solution, DMEM medium containing 10% fetal bovine serum. The protocol: (§1) A test compound (20 mg) was dissolved in dimethyl sulfoxide (1 ml) and successively diluted into test solutions.
(§2) DMEM medium containing 10% fetal bovine serum was used for a human gastric cancer cell MKN45 and a human colon cancer cell LS180, and […] medium containing 10% fetal bovine serum was used for human lung cancer PC13.
(§3) 100 µl portions of the cell-culturing medium containing 3×10^3 cancer cells were put in a 96-hole microplate, culture was carried out under 5% CO2 at 37°C for 24 hours, 11 µl portions of the above test solution were added, the mixtures were subjected to culture under 5% CO2 at 37°C for further 72 hours, and then the cells were fixated with 50% trichloroacetic acid and stained with 0.4% sulforhodamine B. The dye was extracted from the stained cells with 10 mM Tris solution, and absorbance at 540 nm was measured and compared with that in the control group. […]

For assay [2], the system named is human colon cancer cell LS180. The assay can be described thus: Cancer cell proliferation inhibition (sulforhodamine B staining), LS180. To be noted: 72 hours culture with test solution, DMEM medium containing 10% fetal bovine serum. The protocol:
as §1, §2, §3

The subject of assay [3] is human lung cancer PC13. Description: Cancer cell proliferation inhibition (sulforhodamine B staining), PC13. The settings on record: PC-13, 72 hours culture with test solution, RPMI-160 medium containing 10% fetal bovine serum. The procedure: as §1, §2, §3

As for `O=C1NC(=O)c2c1c1c3cccc(O)c3[nH]c1c1[nH]c3c(O)cccc3c21` [BE-13793C, 12,13-dihydro-1,11-dihydroxy-5H-indolo[2,3-a]pyrrolo[3,4-c]-carbazole-5,7(6H)-dione], the IC50 is above 50 µg/mL in assay [1], above 50 µg/mL in assay [2] and 12.5 µg/mL (≈ 35 µM) in assay [3].
For the compound `O=C1NC(=O)c2c1c1c3cccc(O)c3[nH]c1c1c2c2cccc(O)c2n1[C@@H]1O[C@H](CO)[C@@H](O)[C@H](O)[C@H]1O` [Example 1, 12,13-dihydro-1,11-dihydroxy-13-(β-D-glucopyranosyl)-5H-indolo[2,3-a]pyrrolo[3,4-c]carbazole-5,7(6H)-dione], the IC50 in assay [1] was 0.28 µg/mL (≈ 0.539 µM); in assay [2], 1.65 µg/mL (≈ 3.18 µM); in assay [3], 1.7 µg/mL (≈ 3.27 µM).
